Converted amounts (≈) assume the structure as drawn. Where two headings read alike, the source gives them in different places.
Key:
[1] = system: S. pyogenes ATCC 700294; assay: Minimal inhibitory concentration, microbroth dilution; type: cell-based; details: Streptococcus pyogenes, ATCC700294, read-out: Minimal Inhibitory Concentration S. pyogenes ATCC 700294
How it was run: (§1)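 Twofold serial dilutions in broth per CLSI M7-A7 microbroth dilution, incubated aerobically overnight at 37° C. MIC read visually as lowest concentration preventing bacterial growth.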

[2] = system: S. pneumoniae R6; assay: as above; type: cell-based; details: Streptococcus pneumoniae, R6, read-out: Minimal Inhibitory Concentration S. pneumoniae R6
How it was run: as §1

[3] = system: S. aureus USA 300 ΔClpP; assay: as above; type: cell-based, Staphylococcus aureus; details: ClpP inactivated strain
How it was run: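 MIC is recorded by eye as the lowest drug concentration that stops bacterial growth. Compound is serially diluted twofold in broth, starting at 200 μM final, and bacteria are added at roughly 10^5 cfu/mL. Incubation runs overnight at 37 °C under aerobic conditions, per CLSI guidance.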

[4] = biological target: T1, Sa-ClpP (Staphylococcus aureus, UniProt Q2G036); assay: ClpP activation, EnzCheck Protease Assay with Bodipy-FL casein (second described method); type: biochemical, S. aureus; details: read-out: ClpP Activation EC50 (converted)
T1 construct: made in house; host or cells: E. coli BL21 (DE3)
T1 sequence (Q2G036 whole entry): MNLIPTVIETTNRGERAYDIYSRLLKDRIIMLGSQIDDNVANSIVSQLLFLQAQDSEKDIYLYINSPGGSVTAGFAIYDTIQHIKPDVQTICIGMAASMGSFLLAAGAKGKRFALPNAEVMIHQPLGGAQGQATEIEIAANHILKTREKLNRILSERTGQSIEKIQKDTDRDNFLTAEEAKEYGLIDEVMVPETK
How it was run: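 Sa-ClpP (2 μM in master mix) with Bodipy-FL casein (2 μM in master mix) in Tris-HCl pH 8.0, 0.01% Triton X-100, compounds in 2% DMSO, triplicate. Fluorescence (ex 485/em 520 nm) followed 30 min; degradation slopes normalized to ADEP4 and DMSO controls, EC50 and % activation by four-parameter fit.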

[5] = system: S. aureus ATCC 29213; assay: Minimal inhibitory concentration, microbroth dilution; type: cell-based; details: Staphylococcus aureus, ATCC29213, read-out: Minimal Inhibitory Concentration S. aureus ATCC 29213
Method: (§2) Minimal inhibitory concentrations (“MICs”) were determined using the microbroth dilution method according to Clinical Laboratory Standards Institute (CLSI; National, C.F. C. L. S., Methods for Dilution Antimicrobial Susceptibility Tests for Bacteria Grow aerobically-Seventh Edition: Approved Standard M7-A7, CLSI, Wayne, Pa., USA, 2008) and were read by visual inspection. Two fold serial dilutions of test compound in 100 μL of the appropriate broth media were first prepared in 96-well round bottom microtiter plates (Nalgene Nunc International, Rochester, N.Y., USA). An equivalent volume (100 μL) of bacterial broth inocula containing approximately 10^5 bacterial cfu/mL was added to each well to give final concentrations of test compound starting at 200 μM. The plates were then incubated aerobically at 37° C. All strains were incubated overnight. After incubations, in all cases the MIC was recorded as the lowest concentration of drug that prevented bacterial growth. The bacterial strains for which MIC was determined as described in Table 4.

[6] = system: B. subtilis ATCC 23857; assay: as above; type: cell-based; details: Bacillus subtilis, ATCC23857, read-out: Minimal Inhibitory Concentration B. subtilis ATCC 23857
Method: as §2

[7] = Cytotoxicity assay, CellTiter-Glo cell viability; type: cell-based; details: African green monkey
How it was run: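 Vero cells seeded overnight at 37 °C in DMEM with 10% FBS, then exposed to serial dilutions of compound for 72 h. Viability read by CellTiter-Glo luminescence; IC50 from duplicates, given as the range of two independent experiments.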

[8] = biological target: T1, Sa-ClpP; assay: ADEP displacement fluorescence polarization assay; type: binding, S. aureus; details: 1 μM Sa-ClpP, 50 nM FP probe ADEP 2591; read-out: ADEP Displacement IC50
How it was run: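 Displacement of TAMRA-labelled ADEP 2591 probe (50 nM) from 1 μM Sa-ClpP, pre-equilibrated 1 h in Tris·HCl pH 8.0 with 2% DMSO, then 120 min at room temperature with compound, triplicate. Polarization (mP) read ex 530/em 579 nm, normalised to 20 μM ADEP 2378 and DMSO controls; four-parameter fit.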

[9] = biological target: T2, S. aureus ClpP (Sa-ClpP) (Staphylococcus aureus, UniProt Q2G036); assay: ClpP activation, casein-BODIPY digestion assay (first described method); type: biochemical; details: first described ClpP activation assay (**); 10 μM saClpP, 25 μg/ml BODIPY FL casein, 37° C.; read-out: ClpP Activation EC50
T2 construct: made in house; host or cells: E. coli BL21 (DE3)
T2 sequence (Q2G036 whole entry): as above
Method: The compounds were assayed in a casein digestion assay in order to determine their effect on ClpP activation. Briefly, the assay was carried out using S. aureus ClpP (“Sa-ClpP”) overexpressed in E. coli BL21 (DE3) and purified in a two-step process. Purity of the protein was assessed through SDS PAGE analysis. EC50 evaluations were conducted in triplicate in a 20 μl assay format using a method adapted from Maurizi et al. (Methods Enzymol. (1994) 244:314-331.). Each well contained 10 μM saClpP, 25 μg/ml BODIPY FL casein (Invitrogen Corporation, San Diego, Calif.), and test compound in concentrations ranging between 0-100 μM in assay buffer (50 mM Tris pH 8, 200 mM KCl, and 1 mM TCEP). The reaction took place at 37° C. Fluorescence (excitation 485 nm; emission 528 nm) was measured in five minute intervals over a 45 min period using a BioTek HT fluorescence microplate reader (BioTek Instruments, Inc., Winooski, Vt.). Velocity of each reaction was calculated and data was fit to a dose response curve using GraphPad Prism® software (GraphPad Software, Inc., La Jolla, Calif.). EC50 is the effective concentration of compound which causes 50% activation of S. aureus ClpP in the foregoing BODIPY FL casein assay.

[10] = Vero cells, 72 hours, read-out: Cytotoxicity IC50

Compound: Cc1ccc(NC(=O)N[C@@H](Cc2cc(F)cc(F)c2)C(=O)N[C@@H]2C(=O)N3CCCC3C(=O)N(C)[C@@H](C)C(=O)N[C@@H](C)C(=O)N3C[C@@H](C)CC3C(=O)O[C@H]2C)cc1 (stereo partly drawn) [Compound 26, (2S)-3-(3,5-Difluorophenyl)-N-((2S,6S,9S,11aS,17S,18S)-2,6,9,10,18-Pentamethyl-5,8,11,16,20-Pentaoxohexadecahydro-1H,5H,16H-Dipyrrolo[2,1-C:2′,1′-L][1]Oxa[4,7,10,13]Tetraazacyclohexadecin-17-Yl)-2-(3-(P-Tolyl)Ureido)Propanamide]
- MIC [1]: 0.5 µM (≈ 0.391 µg/mL)
- MIC [2]: 0.125 µM (≈ 0.0977 µg/mL)
- Minimal Inhibitory Concentration S. aureus USA 300 ΔClpP [3]: 200 µM
- EC50 [4]: 0.29 ± 0.01 µM
- MIC [5]: 0.2 µM (≈ 0.156 µg/mL)
- MIC [6]: 0.03 µM (≈ 0.0235 µg/mL)
- IC50 at 72 h [7, 10]: 40.5 ± 3.8 µM
- IC50 [8]: 8.2 ± 0.3 µM

Compound: C[C@H]1C[C@H]2C(=O)O[C@@H](C)[C@H](NC(=O)[C@H](Cc3cc(F)cc(F)c3)NC(=O)Nc3ccc(OC(F)(F)F)cc3)C(=O)N3CCC[C@H]3C(=O)N3CCCC[C@H]3C(=O)N[C@@H](C)C(=O)N2C1 [Compound 22, (S)-3-(3,5-Difluorophenyl)-2-(3-(4-(Trifluoromethoxy)Phenyl)Ureido)-N-((2R,6S,8aS,14aS,20S,21S,23aS)-2,6,21-Trimethyl-5,8,14,19,23-Pentaoxooctadecahydro-1H,5H,14H,19H-Pyrido[2,1-I]Dipyrrolo[2,1-C:2′,1′-L][1]Oxa[4,7,10,13]Tetraazacyclohexadecin-20-Yl)Propanamide]
- EC50 [4]: 0.32 µM
- EC50 [9]: 3.6 ± 0.4 µM
- IC50 at 72 h [7, 10]: 52.3 ± 7.7 µM
- IC50 [8]: 8.9 ± 0.3 µM

Compound: CCc1cccc(NC(=O)N[C@@H](Cc2ccccc2)C(=O)N[C@H]2COC(=O)[C@@H]3C[C@@H](C)CN3C(=O)[C@H](C)NC(=O)[C@@H]3CCCCN3C(=O)[C@@H]3CCCN3C2=O)c1 [Compound 10, (S)—N-((2R,6S,8aS,14aS,20S,23aS)-2,6-Dimethyl-5,8,14,19,23-Pentaoxooctadecahydro-1H,5H,14H,19H-Pyrido[2,1-1]Dipyrrolo[2,1-C:2′,1′-L][1]Oxa[4,7,10,13]Tetraazacyclohexadecin-20-Yl)-2-(3-(3-Ethylphenyl)Ureido)-3-Phenylpropanamide]
- EC50 [4]: 0.9 ± 0.018 µM
- EC50 [9]: 1.5 ± 0.6 µM
- IC50 at 72 h [7]: 74.8 ± 4.6 µM
- IC50 [8]: 13.6 ± 1.7 µM

Compound: Cc1ccc(NC(=O)N[C@@H](Cc2ccccc2)C(=O)N[C@H]2COC(=O)C3C[C@H](C)CN3C(=O)[C@H](C)NC(=O)C3CCCCN3C(=O)C3CCCN3C2=O)cc1 (stereo partly drawn) [Compound 43, (S)—N-((2S,6S,8aS,14aS,20S,23aS)-2,6-Dimethyl-5,8,14,19,23-Pentaoxooctadecahydro-1H,5H,14H,19H-Pyrido[2,1-I]Dipyrrolo[2,1-C:2′,1′-L][1]Oxa[4,7,10,13]Tetraazacyclohexadecin-20-Yl)-3-Phenyl-2-(3-(P-Tolyl)Ureido)Propanamide]
- MIC [1]: 0.8 µM (≈ 0.606 µg/mL)
- MIC [2]: 0.2 µM (≈ 0.152 µg/mL)
- Minimal Inhibitory Concentration S. aureus USA 300 ΔClpP [3]: >200 µM
- EC50 [4]: 0.37 ± 0.03 µM
- MIC [5]: 1.6 µM (≈ 1.21 µg/mL)
- MIC [6]: 0.4 µM (≈ 0.303 µg/mL)
- IC50 at 72 h [7, 10]: 74.5 ± 8.8 µM
- IC50 [8]: 6.57 ± 0.2 µM

Compound: Cc1ccc(NC(=O)N[C@@H](Cc2cc(F)cc(F)c2)C(=O)N[C@@H]2C(=O)N3CCCC3C(=O)N3CCOCC3C(=O)N[C@@H](C)C(=O)N3C[C@@H](C)CC3C(=O)O[C@H]2C)cc1 (stereo partly drawn) [Compound 33, (S)-3-(3,5-Difluorophenyl)-2-(3-(P-Tolyl)Ureido)-N-((6aS,12S,13S,1 5aS,17S,21S,23aS)-13,17,21-Trimethyl-6,11,15,20,23-Pentaoxooctadecahydro-6H,11H,15H-[1,4]Oxazino[3,4-I]Dipyrrolo[2,1-C:2′,1′-L][1]Oxa[4,7,10,13]Tetraazacyclohexadecin-12-Yl)Propanamide]
- MIC [1]: 0.39 µM (≈ 0.316 µg/mL)
- MIC [2]: 0.098 µM (≈ 0.0794 µg/mL)
- Minimal Inhibitory Concentration S. aureus USA 300 ΔClpP [3]: 200 µM
- EC50 [4]: 0.39 ± 0.02 µM
- MIC [5]: 0.2 µM (≈ 0.162 µg/mL)
- MIC [6]: 0.2 µM (≈ 0.162 µg/mL)
- IC50 at 72 h [7, 10]: 41 ± 4.3 µM
- IC50 [8]: 5.6 ± 0.3 µM

Compound: Cc1ccc(NC(=O)N[C@@H](Cc2cc(F)cc(F)c2)C(=O)N[C@@H]2C(=O)N3CCCC3C(=O)N3CCCCC3C(=O)N[C@@H](C)C(=O)N3C[C@H](C)CC3C(=O)O[C@H]2C)cc1 (stereo partly drawn) [Compound 39, (S)-3-(3,5-Difluorophenyl)-2-(3-(P-Tolyl)Ureido)-N-((2R,6S,8aS,14aS,20S,21S,23aS)-2,6,21-Trimethyl-5,8,14,19,23-Pentaoxooctadecahydro-1H,5H,14H,19H-Pyrido[2,1-I]Dipyrrolo[2,1-C:2′,1′-L][1]Oxa[4,7,10,13]Tetraazacyclohexadecin-20-Yl)Propanamide]
- MIC [1]: 0.2 µM (≈ 0.162 µg/mL)
- MIC [2]: 0.05 µM (≈ 0.0404 µg/mL)
- Minimal Inhibitory Concentration S. aureus USA 300 ΔClpP [3]: 100 µM
- EC50 [4]: 0.48 ± 0.03 µM
- MIC [5]: 0.05 µM (≈ 0.0404 µg/mL)
- MIC [6]: 0.02 µM (≈ 0.0162 µg/mL)
- IC50 at 72 h [7, 10]: 40 ± 4.1 µM
- IC50 [8]: 9 ± 0.4 µM

Compound: CCc1ccc(NC(=O)N[C@@H](Cc2cc(F)cc(F)c2)C(=O)N[C@H]2COC(=O)[C@@H]3C[C@@H](C)CN3C(=O)[C@H](C)NC(=O)[C@@H]3CCCCN3C(=O)[C@@H]3CCCN3C2=O)cc1 [Compound 14, (S)-3-(3,5-Difluorophenyl)-N-((2R,6S,8aS,14aS,20S,23aS)-2,6-Dimethyl-5,8,14,19,23-Pentaoxooctadecahydro-1H,5H,14H,19H-Pyrido[2,1-I]Dipyrrolo[2,1-C:2′,1′-L][1]Oxa[4,7,10,13]Tetraazacyclohexadecin-20-Yl)-2-(3-(4-Ethylphenyl)Ureido)Propanamide]
- EC50 [9]: 2.5 ± 0.6 µM
- IC50 at 72 h [7]: 70.5 ± 13.5 µM
- IC50 [8]: 61.3 ± 5 µM

Compound: C[C@@H]1C[C@H]2C(=O)OC[C@H](NC(=O)[C@H](Cc3cc(F)cc(F)c3)NC(=O)Nc3ccc(OC(F)(F)F)cc3)C(=O)N3CCC[C@H]3C(=O)N3CCCC[C@H]3C(=O)N[C@@H](C)C(=O)N2C1 [Compound 13, (S)-3-(3,5-Difluorophenyl)-N-((2R,6S,8aS,14aS,20S,23aS)-2,6-Dimethyl-5,8,14,19,23-Pentaoxooctadecahydro-1H,5H,14H,19H-Pyrido[2,1-I]Dipyrrolo[2,1-C:2′,1′-L][1]Oxa[4,7,10,13]Tetraazacyclohexadecin-20-Yl)-2-(3-(4-(Trifluoromethoxy)Phenyl)Ureido)Propanamide]
- EC50 [9]: 3.2 ± 0.6 µM
- IC50 at 72 h [7]: 70.9 ± 8.9 µM
- IC50 [8]: 5.69 ± 0.5 µM

— US9879050B2, “Substituted urea depsipeptide analogs as activators of the CLPP endopeptidase” (priority 2013, dated 2018)
